# According to US20230183219A1, “CONDENSED SUBSTITUTED HYDROPYRROLES AS ANTAGONISTS OF THE MUSCARINIC ACETYLCHOLINE RECEPTOR M4” (Vanderbilt University, priority 2020, published 2023):
# Target: T1, Human M4 (Homo sapiens, UniProt P08173)
# T1 construct: Human or rat M4 cDNA, along with the chimeric G protein Gqi5, were transfected into Chinese hamster ovary (CHO-K1) cells; expressed in transfected cells; host or cells: CHO-K1 (Chinese hamster ovary, ATCC), stably co-expressing Gqi5
# T1 sequence (P08173 1-479): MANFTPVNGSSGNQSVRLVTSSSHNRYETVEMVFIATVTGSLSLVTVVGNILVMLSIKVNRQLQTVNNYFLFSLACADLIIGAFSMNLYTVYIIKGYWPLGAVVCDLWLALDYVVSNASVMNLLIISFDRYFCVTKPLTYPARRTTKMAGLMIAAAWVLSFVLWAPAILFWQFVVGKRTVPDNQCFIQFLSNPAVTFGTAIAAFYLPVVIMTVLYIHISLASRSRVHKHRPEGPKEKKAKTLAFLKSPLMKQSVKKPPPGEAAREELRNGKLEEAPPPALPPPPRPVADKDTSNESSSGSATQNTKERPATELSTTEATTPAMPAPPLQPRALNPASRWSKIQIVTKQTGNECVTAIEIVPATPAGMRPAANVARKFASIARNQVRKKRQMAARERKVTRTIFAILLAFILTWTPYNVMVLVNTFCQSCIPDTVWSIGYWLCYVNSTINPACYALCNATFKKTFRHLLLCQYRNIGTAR
# Test: mAChR M4 cell-based functional assay (calcium flux, decrease of EC80 acetylcholine response)
# Conditions: for remaining activity at 30 µM: read-out: Human M4 Emin; for IC50: M4/Gqi5/CHO-K1 cells, decrease of response to EC80 acetylcholine
# In short: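 CHO-K1 cells stably co-expressing M4 and chimeric Gqi5, loaded with Fluo-4 AM; calcium flux read on FDSS. Compound added at 2 s, EC20 acetylcholine at 143 s, EC80 acetylcholine at 268 s. IC50 from concentration-dependent decrease of the EC80 response, four-parameter logistic fit; 10-point 1:3 titrations.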
remaining activity at 30 µM (% ACh maximum at 30 μM) [%],IC50 [nM],Human M4 Emin (% ACh maximum at 30 μM) [%],SMILES
6,688,,"Cn1cc2cc(-c3cc(C#N)c(N[C@H]4C[C@@H]5CN(CC6(C#N)CC6)C[C@@H]5C4)nn3)ccc2n1 [Example 160, 3-(((3aR,5s,6aS)-2-((1-cyano-cyclopropyl)methyl)octahydro-cyclopenta[c]pyrrol-5-yl)amino)-6-(2-methyl-2H-indazol-5-yl)pyridazine-4-carbonitrile]"
3,6.1,,"Cc1cnc(F)cc1-c1cc(C(F)(F)F)c(N[C@H]2C[C@@H]3CN(CC4CCOCC4)C[C@@H]3C2)nn1 [Example 113, (3aR,5s,6aS)-N-(6-(2-fluoro-5-methylpyridin-4-yl)-4-(trifluoromethyl)pyridazin-3-yl)-2-((tetrahydro-2H-pyran-4-yl)methyl)octahydro-cyclopenta[c]pyrrol-5-amine]"
,10.1,3,"Cc1ccc(F)cc1-c1cc(C(F)(F)F)c(N[C@H]2C[C@@H]3CN(CC4CCCOC4)C[C@@H]3C2)nn1 (single isomer, unassigned) [Example 121]"
5,103,,"Cn1cc2cc(-c3cc(C#N)c(N[C@H]4C[C@@H]5CN(C[C@H]6CCOC6)C[C@@H]5C4)nn3)ccc2n1 [Example 155, 6-(2-methyl-2H-indazol-5-yl)-3-(((3aR,5s,6aS)-2-(((R)-tetrahydrofuran-3-yl)methyl)octahydro-cyclopenta[c]pyrrol-5-yl)amino)pyridazine-4-carbonitrile]"
3,2.7,,"Cc1ccc(F)cc1-c1cc(C(F)(F)F)c(N[C@H]2C[C@@H]3CN(C[C@H]4COCCO4)C[C@@H]3C2)nn1 [Example 22, (3aR,5s,6aS)-2-(((S)-1,4-dioxan-2-yl)methyl)-N-(6-(5-fluoro-2-methylphenyl)-4-(trifluoromethyl)pyridazin-3-yl)octahydro-cyclopenta[c]pyrrol-5-amine]"
3,757,,"CC(C)Oc1cc(F)c(-c2cc(C(F)(F)F)c(N[C@H]3C[C@@H]4CN(CC5CCOCC5)C[C@@H]4C3)nn2)cc1F [Example 97, (3aR,5s,6aS)-N-(6-(2,5-difluoro-4-isopropoxyphenyl)-4-(trifluoromethyl)pyridazin-3-yl)-2-((tetrahydro-2H-pyran-4-yl)methyl)octahydro-cyclopenta[c]pyrrol-5-amine]"
6,162,,"Cn1cc2cc(-c3cc(C(F)(F)F)c(N[C@H]4C[C@@H]5CN(C[C@@H]6CCOC6)C[C@@H]5C4)nn3)ccc2n1 [Example 32, (3aR,5s,6aS)-N-(6-(2-methyl-2H-indazol-5-yl)-4-(trifluoro-methyl)pyridazin-3-yl)-2-(((S)-tetrahydrofuran-3-yl)methyl)octahydro-cyclopenta[c]pyrrol-5-amine]"
3,30.5,,"Cc1ccc(F)cc1-c1cc(C#N)c(N[C@H]2C[C@@H]3CN(C[C@@H]4COCCO4)C[C@@H]3C2)nn1 [Example 150, 3-(((3aR,5s,6aS)-2-(((R)-1,4-dioxan-2-yl)methyl)octahydro-cyclopenta[c]pyrrol-5-yl)amino)-6-(5-fluoro-2-methylphenyl)pyridazine-4-carbonitrile]"
4,345,,"Cn1cnc2ccc(-c3cc(C(F)(F)F)c(N[C@H]4C[C@@H]5CN(Cc6ccccn6)C[C@@H]5C4)nn3)cc21 [Example 117, (3aR,5s,6aS)-N-(6-(1-methyl-1H-benzo[d]imidazol-6-yl)-4-(trifluoromethyl)pyridazin-3-yl)-2-(pyridin-2-ylmethyl)octahydro-cyclopenta[c]pyrrol-5-amine]"
3,25.1,,"Cn1cc2cc(-c3cc(C(F)(F)F)c(N[C@H]4C[C@@H]5CN(CC6COCCO6)C[C@@H]5C4)nn3)ccc2n1 (stereo partly drawn) [Example 20, (3aR,5s,6aS)-2-((1,4-dioxan-2-yl)methyl)-N-(6-(2-methyl-2H-indazol-5-yl)-4-(trifluoromethyl)pyridazin-3-yl)octahydro-cyclopenta[c]pyrrol-5-amine]"
3,258,,"COc1ccc(-c2cc(C(F)(F)F)c(N[C@H]3C[C@@H]4CN(CC5CCOCC5)C[C@@H]4C3)nn2)c(F)c1F [Example 62, (3aR,5s,6aS)-N-(6-(2,3-difluoro-4-methoxyphenyl)-4-(trifluoromethyl)pyridazin-3-yl)-2-((tetrahydro-2H-pyran-4-yl)methyl)octahydro-cyclopenta[c]pyrrol-5-amine]"
2,35.1,,"FC(F)(F)c1cc(N2CCOCC2)nnc1N[C@H]1C[C@@H]2CN(CC3CCOCC3)C[C@@H]2C1 [Example 143, (3aR,5s,6aS)-N-(6-morpholino-4-(trifluoromethyl)pyridazin-3-yl)-2-((tetrahydro-2H-pyran-4-yl)methyl)octahydro-cyclopenta[c]pyrrol-5-amine]"
3,54,,"COc1ccccc1-c1cc(C(F)(F)F)c(N[C@H]2C[C@@H]3CN(CC4CCOCC4)C[C@@H]3C2)nn1 [Example 64, (3aR,5s,6aS)-N-(6-(2-methoxyphenyl)-4-(trifluoromethyl)pyridazin-3-yl)-2-((tetrahydro-2H-pyran-4-yl)methyl)octahydro-cyclopenta[c]pyrrol-5-amine]"
3,674,,"Fc1ccccc1-c1cc(C(F)(F)F)c(N[C@H]2C[C@@H]3CN(Cc4ccccn4)C[C@@H]3C2)nn1 [Example 101, (3aR,5s,6aS)-N-(6-(2-fluorophenyl)-4-(trifluoro-methyl)pyridazin-3-yl)-2-(pyridin-2-ylmethyl)octahydro-cyclopenta[c]pyrrol-5-amine]"
5,52.3,,"Cc1ccc(F)cc1-c1cc(C(F)(F)F)c(N[C@H]2C[C@@H]3CN(CC4COCC4C)C[C@@H]3C2)nn1 (stereo partly drawn) [Example 29, (3aR,5s,6aS)-N-(6-(5-fluoro-2-methylphenyl)-4-(trifluoromethyl)pyridazin-3-yl)-2-((4-methyltetrahydro-furan-3-yl)methyl)octahydro-cyclopenta[c]pyrrol-5-amine]"
3,328,,"Cc1cc(C)cc(-c2cc(C(F)(F)F)c(N[C@H]3C[C@@H]4CN(Cc5ccccn5)C[C@@H]4C3)nn2)c1 [Example 104, (3aR,5s,6aS)-N-(6-(3,5-dimethylphenyl)-4-(trifluoromethyl)pyridazin-3-yl)-2-(pyridin-2-ylmethyl)octahydro-cyclopenta[c]pyrrol-5-amine]"
3,249,,"FC(F)(F)Oc1ccccc1-c1cc(C(F)(F)F)c(N[C@H]2C[C@@H]3CN(CC4CCOCC4)C[C@@H]3C2)nn1 [Example 58, (3aR,5s,6aS)-2-((tetrahydro-2H-pyran-4-yl)methyl)-N-(6-(2-(trifluoro-methoxy)phenyl)-4-(trifluoromethyl)pyridazin-3-yl)octahydro-cyclopenta[c]pyrrol-5-amine]"
3,11.3,,"[2H]C([2H])(C1CCOCC1)N1C[C@H]2C[C@H](Nc3nnc(-c4cc(F)ccc4C)cc3C(F)(F)F)C[C@H]2C1 [Example 17, (3aR,5s,6aS)-N-(6-(5-fluoro-2-methylphenyl)-4-(trifluoro-methyl)pyridazin-3-yl)-2-((tetrahydro-2H-pyran-4-yl)methyl-d2)octahydro-cyclopenta[c]pyrrol-5-amine]"
3,2.06,,"Fc1ccc(Cl)c(-c2nnc(N[C@H]3C[C@@H]4CN(CC5CCOCC5)C[C@@H]4C3)cc2C(F)(F)F)c1 [Example 10, (3aR,5s,6aS)-N-(6-(2-chloro-5-fluorophenyl)-5-(trifluoro-methyl)pyridazin-3-yl)-2-((tetrahydro-2H-pyran-4-yl)methyl)octahydro-cyclopenta[c]pyrrol-5-amine]"
5,130,,"Cc1ccc(F)cc1-c1cc(C(F)(F)F)c(N[C@H]2C[C@@H]3CN(C[C@H]4CCOC4)C[C@@H]3C2)nn1 [Example 31, (3aR,5s,6aS)-N-(6-(5-fluoro-2-methylphenyl)-4-(trifluoromethyl)pyridazin-3-yl)-2-(((R)-tetrahydrofuran-3-yl)methyl)octahydro-cyclopenta[c]pyrrol-5-amine]"
3,31.2,,"Cc1ccc(F)cc1-c1cc(C(F)(F)F)c(N[C@H]2C[C@@H]3CN(C[C@@H]4COCCO4)C[C@@H]3C2)nn1 [Example 21, (3aR,5s,6aS)-2-(((R)-1,4-dioxan-2-yl)methyl)-N-(6-(5-fluoro-2-methylphenyl)-4-(trifluoromethyl)pyridazin-3-yl)octahydro-cyclopenta[c]pyrrol-5-amine]"
